What was measured:
[1] = Compound cytotoxicity, XTT-based colorimetric assay; format: cell-based; settings: human, uninfected MT2 cells
Summary of the method: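 CC50 from uninfected MT2 cells run under the antiviral-assay protocol without virus. Viability read on day 4 by XTT colorimetric assay.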

[2] = tested on: recombinant NL4-3 virus (nef section replaced with Renilla luciferase gene) in MT-2 cells; test: HIV cell culture assay (antiviral activity, luciferase readout); format: cell-based; settings: MT-2 cells infected for 4-5 days with recombinant NL4-3 luciferase virus
Summary of the method: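 NL4-3 reporter virus carrying Renilla luciferase in place of part of nef, produced in 293T cells, was used to infect MT-2 cells for 4-5 days with serial compound dilutions. Luciferase activity was read with a live-cell substrate; EC50 derived from the median effect equation.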

Row | Compound | CC50 at 4 days ([1]; Table 1a, day 4, XTT) [nM] | EC50 ([2]; Renilla, NL43, Table 1a) [nM] | CC50 at 4 days ([1]; Table 1, day 4, XTT) [nM] | EC50 ([2]; Renilla, NL43, Table 1) [nM] | EC50 ([2]; Table 1a) [nM]
1 | CSc1nc2nc(C(Cc3cc(F)cc(F)c3)NC(=O)Cn3nc(C(F)F)c4c3C(F)(F)[C@@H]3C[C@H]43)c(-c3ccc(Cl)c4c(NS(C)(=O)=O)nn(C)c34)cc2s1 (stereo partly drawn) [Example 193, N-(1-(6-(4-chloro-1-methyl-3-(methylsulfonamido)-1H-indazol-7-yl)-2-(methylthio)thiazolo[4,5-b]pyridin-5-yl)-2-(3,5-difluorophenyl)ethyl)-2-((3bS,4aR)-3-(difluoromethyl)-5,5-difluoro-3b,4,4a,5-tetrahydro-1H-cyclopropa[3,4]cyclopenta[1,2-c]pyrazol-1-yl)acetamide] | > 10000 | 0.18 | – | – | –
2 | Cn1nc(NS(C)(=O)=O)c2c(Cl)ccc(-n3c([C@H](Cc4cc(F)cc(F)c4)NC(=O)Cn4nc(C(F)F)c5c4C(F)(F)[C@@H]4C[C@H]54)nc4cccc(F)c4c3=O)c21 (single isomer, unassigned) [Example 19] | – | – | > 8000 | 130 | –
3 | Cn1nc(NS(C)(=O)=O)c2c(Cl)ccc(-n3c([C@H](Cc4cc(F)cc(F)c4)NC(=O)Cn4ccc(C5CC5)n4)nc4ccc(OC(F)(F)F)cc4c3=O)c21 (single isomer, unassigned) [Example 152] | > 1000 | – | – | – | 173
4 | O=C(Cn1nc(C(F)F)c2c1C(F)(F)[C@@H]1C[C@H]21)NC(Cc1cc(F)cc(F)c1)c1nc2ncccc2c(=O)n1-c1ccc(Cl)cc1 (stereo partly drawn) [Example 123, N-(1-(3-(4-chlorophenyl)-4-oxo-3,4-dihydropyrido[2,3-d]pyrimidin-2-yl)-2-(3,5-difluorophenyl)ethyl)-2-((3bS,4aR)-3-(difluoromethyl)-5,5-difluoro-3b,4,4a,5-tetrahydro-1H-cyclopropa[3,4]cyclopenta[1,2-c]pyrazol-1-yl)acetamide] | > 1000 | 408 | – | – | –
5 | Cn1nc(NS(C)(=O)=O)c2c(Cl)ccc(-n3c([C@H](Cc4cc(F)cc(F)c4)NC(=O)Cn4nc(C(F)F)c5c4C(F)(F)[C@@H]4C[C@H]54)nc4cc(C(C)(F)F)ccc4c3=O)c21 (single isomer, unassigned) [Example 196] | > 1000 | 0.081 | – | – | –
6 | CC(C)(c1ccc2c(=O)n(-c3ccc(Cl)c4c(NS(C)(=O)=O)nn(CC(F)F)c34)c([C@H](Cc3cc(F)cc(F)c3)NC(=O)Cn3nc(C(F)F)c4c3C(F)(F)[C@@H]3C[C@H]43)nc2c1)S(C)(=O)=O [Example 213, N—((S)-1-(3-(4-chloro-1-(2,2-difluoroethyl)-3-(methylsulfonamido)-1H-indazol-7-yl)-7-(2-(methylsulfonyl)propan-2-yl)-4-oxo-3,4-dihydroquinazolin-2-yl)-2-(3,5-difluorophenyl)ethyl)-2-((3bS,4aR)-3-(difluoromethyl)-5,5-difluoro-3b,4,4a,5-tetrahydro-1H-cyclopropa[3,4]cyclopenta[1,2-c]pyrazol-1-yl)acetamide] | > 1000 | 0.28 | – | – | –
7 | O=C(Cn1nc(C(F)F)c2c1C(F)(F)[C@@H]1C[C@H]21)N[C@@H](Cc1cc(F)cc(F)c1)c1nc2cn[nH]c2cc1-c1ccc2c(c1)CNC2=O [Example 10.12, 2-((3bS,4aR)-3-(difluoromethyl)-5,5-difluoro-3b,4,4a,5-tetrahydro-1H-cyclopropa[3,4]cyclopenta[1,2-c]pyrazol-1-yl)-N—((S)-2-(3,5-difluorophenyl)-1-(6-(1-oxoisoindolin-5-yl)-1H-pyrazolo[4,3-b]pyridin-5-yl)ethyl)acetamide] | – | – | > 10000 | 95 | –
8 | CC(C)c1ccc(-c2cc3[nH]ncc3nc2C(Cc2cc(F)cc(F)c2)NC(=O)Cn2nc(C(F)F)c3c2C(F)(F)[C@@H]2C[C@H]32)cn1 (single isomer, unassigned) [Example 3.9] | – | – | 9600 | 9.9 | –
